Source: patent US8138175B2, “Heterocyclyl compounds” (Hoffmann-La Roche Inc., priority 2008, dated 2012)

molecular target: T1, human chemokine receptor 2 isoform B (Homo sapiens, UniProt P41597); assay: Calcium mobilization assay; assay type: cell-based; settings: Ca mobilization assay for CCR2; CHOK1-CCR2B-A5 cells; antagonist activity against 20 nM MCP-1; FLIPR, Fluo-4
T1 construct: host or cells: CHOK1-CCR2B-A5 (CHO-K1) cells
T1 sequence (P41597 1-360 isoform P41597-2): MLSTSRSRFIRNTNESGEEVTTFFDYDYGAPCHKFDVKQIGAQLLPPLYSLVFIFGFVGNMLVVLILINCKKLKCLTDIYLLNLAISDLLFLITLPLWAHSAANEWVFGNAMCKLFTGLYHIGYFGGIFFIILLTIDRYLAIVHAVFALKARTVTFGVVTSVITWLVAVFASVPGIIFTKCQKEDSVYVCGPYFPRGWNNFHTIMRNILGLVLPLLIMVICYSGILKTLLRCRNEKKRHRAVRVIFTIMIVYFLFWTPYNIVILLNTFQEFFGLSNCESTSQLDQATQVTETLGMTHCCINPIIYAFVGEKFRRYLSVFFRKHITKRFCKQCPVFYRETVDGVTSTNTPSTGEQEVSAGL
Experimental: Calcium Mobilization Assay
CHOK1-CCR2B-A5 cells (from Euroscreen) stably overexpressing the human chemokine receptor 2 isoform B were cultured in Nutrient Hams F12 medium supplemented with 5% FBS, 100 U/ml penicillin, 100 μg/ml streptomycin, 400 μg/ml G418 and 5 μg/ml puromycin.
For the assay cells were grown overnight in 384-well black clear flat bottom polystyrene plates (Costar) at 37° C. at 5% CO2. After washing with DMEM, 20 mM Hepes, 2.5 mM probenecid, 0.1% BSA (DMEM assay buffer) cells were loaded with 4 μM Fluo-4 in the same DMEM assay buffer for 2 hours at 30° C. Excess dye was removed and cells were washed with DMEM assay buffer. 384-well compound plates were prepared with DMEM assay buffer/0.5% dimethyl sulfoxide with or without various concentrations of test compounds. Usually compounds were tested for agonist and antagonist activity.
Test compounds were added to the assay plate and agonist activity was monitored as fluorescence for 80 seconds with a FLIPR (488 nm excitation; 510-570 nm emission; Molecular Devices). After 20-30 min. of incubation at 30° C., 20 nM MCP-1 (R&D; Roche) was added and fluorescence was monitored again for 80 seconds. Increases in intracellular calcium are reported as maximum fluorescence after agonist exposure minus basal fluorescence before exposure. Antagonist activity is indicated as inhibitor concentration required for 50% inhibition of specific calcium increases.

Row | Structure (SMILES) | IC50 [nM]
1 | CN(C)C(=O)C(CCCN1CCC(C)(O)CC1)N1CCN(c2cccc(C(F)(F)F)c2)CCC1=O (racemic) [Example 25, (rac)-5-(4-Hydroxy-4-methyl-piperidin-1-yl)-2-[7-oxo-4-(3-trifluoromethyl-phenyl)-[1,4]diazepan-1-yl]-pentanoic acid dimethylamide] | 200
2 | COC(=O)C(CCCN1CCC(C)(O)CC1)N1CCN(c2cccc(C(F)(F)F)c2)CCC1=O (racemic) [Example 29, (rac)-5-(4-Hydroxy-4-methyl-piperidin-1-yl)-2-[7-oxo-4-(3-trifluoromethyl-phenyl)-[1,4]diazepan-1-yl]-pentanoic acid methyl ester] | 640
3 | O=C1CCN(c2cccc(Cl)c2)CCN1[C@H](CO)CCN1CCC2(CC2)[C@H](O)C1 [Example 4, 1-(3-Chloro-phenyl)-4-[(S)-3-((S)-4-hydroxy-6-aza-spiro[2.5]oct-6-yl)-1-hydroxymethyl-propyl]-[1,4]diazepan-5-one] | 60
4 | COC(=O)[C@H](CCN1CCC2(CC2)[C@H](O)C1)N1CCN(c2cccc(C(F)(F)F)c2)CCC1=O [Example 5, (S)-4-((S)-4-Hydroxy-6-aza-spiro[2.5]oct-6-yl)-2-[7-oxo-4-(3-trifluoromethyl-phenyl)-[1,4]diazepan-1-yl]-butyric acid methyl ester] | 20
5 | O=C1CCN(c2cccc(C(F)(F)F)c2)CCN1[C@H](CO)CCN1CCC2(CC2)[C@H](O)C1 [Example 6, 4-[(S)-3-((S)-4-Hydroxy-6-aza-spiro[2.5]oct-6-yl)-1-hydroxymethyl-propyl]-1-(3-trifluoromethyl-phenyl)-[1,4]diazepan-5-one] | 10
6 | COC(=O)[C@H](CCN1C[C@@H](C)C[C@H](O)C1)N1CCN(c2cccc(C(F)(F)F)c2)CCC1=O [Example 7, (S)-4-((3S,5S)-3-Hydroxy-5-methyl-piperidin-1-yl)-2-[7-oxo-4-(3-trifluoromethyl-phenyl)-[1,4]diazepan-1-yl]-butyric acid methyl ester] | 90
7 | COC(=O)[C@@H](CCN1CCC2(CC2)[C@H](O)C1)N1CCN(c2cccc(C(F)(F)F)c2)CCC1=O [Example 8, (R)-4-((S)-4-Hydroxy-6-aza-spiro[2.5]oct-6-yl)-2-[7-oxo-4-(3-trifluoromethyl-phenyl)-[1,4]diazepan-1-yl]-butyric acid methyl ester] | 600
8 | O=C1CCN(c2cccc(C(F)(F)F)c2)CCN1[C@@H](CO)CCN1CCC2(CC2)[C@H](O)C1 [Example 9, 4-[(R)-3-((S)-4-Hydroxy-6-aza-spiro[2.5]oct-6-yl)-1-hydroxymethyl-propyl]-1-(3-trifluoromethyl-phenyl)-[1,4]diazepan-5-one] | 180
9 | COC(=O)[C@H](CCN1CCC2(CC2)[C@H](O)C1)N1CCN(c2ccc(OC(F)(F)F)cc2)CCC1=O [Example 11, (S)-4-((S)-4-Hydroxy-6-aza-spiro[2.5]oct-6-yl)-2-[7-oxo-4-(4-trifluoromethoxy-phenyl)-[1,4]diazepan-1-yl]-butyric acid methyl ester] | 400
10 | O=C1CCN(c2ccc(OC(F)(F)F)cc2)CCN1[C@H](CO)CCN1CCC2(CC2)[C@H](O)C1 [Example 12, 4-[(S)-3-((S)-4-Hydroxy-6-aza-spiro[2.5]oct-6-yl)-1-hydroxymethyl-propyl]-1-(4-trifluoromethoxy-phenyl)-[1,4]diazepan-5-one] | 120
11 | CN(C)C(=O)C(CCN1CCC2(CC2)[C@H](O)C1)N1CCN(c2cccc(C(F)(F)F)c2)CCC1=O (stereo partly drawn) [Example 17, (R,S)-4-((S)-4-Hydroxy-6-aza-spiro[2.5]oct-6-yl)-N,N-dimethyl-2-[7-oxo-4-(3-trifluoromethyl-phenyl)-[1,4]diazepan-1-yl]-butyramide] | 140
12 | COC(=O)[C@H](CCN1CCC2(CC2)[C@H](O)C1)N1CCN(c2ccc(C(F)(F)F)cc2)CCC1=O [Example 19, (S)-4-((S)-4-Hydroxy-6-aza-spiro[2.5]oct-6-yl)-2-[7-oxo-4-(4-trifluoromethyl-phenyl)-[1,4]diazepan-1-yl]-butyric acid methyl ester] | 410
13 | O=C1CCN(c2ccc(C(F)(F)F)cc2)CCN1[C@H](CO)CCN1CCC2(CC2)[C@H](O)C1 [Example 20, 4-[(S)-3-((S)-4-Hydroxy-6-aza-spiro[2.5]oct-6-yl)-1-hydroxymethyl-propyl]-1-(4-trifluoromethyl-phenyl)-[1,4]diazepan-5-one] | 350

More lines, in order of falling IC50, values ahead:

Row | IC50 [nM] | Structure (SMILES)
14 | 650 | C[C@H]1C[C@H](O)CN(CCC(C(=O)N(C)C)N2CCN(c3cccc(C(F)(F)F)c3)CCC2=O)C1 (stereo partly drawn) [Example 18, (R,S)-4-((3S,5S)-3-Hydroxy-5-methyl-piperidin-1-yl)-N,N-dimethyl-2-[7-oxo-4-(3-trifluoromethyl-phenyl)-[1,4]diazepan-1-yl]-butyramide]
15 | 130 | COC(=O)[C@H](CCN1CCC2(CC2)[C@H](O)C1)N1CCN(c2cccc(Cl)c2)CCC1=O [Example 3, (S)-2-[4-(3-Chloro-phenyl)-7-oxo-[1,4]diazepan-1-yl]-4-((S)-4-hydroxy-6-aza-spiro[2.5]oct-6-yl)-butyric acid methyl ester]
16 | 100 | CN(C)C(=O)[C@H](CCN1CCC2(CC2)[C@H](O)C1)N1CCN(c2cccc(C(F)(F)F)c2)CCC1=O [Example 22, (S)-4-((S)-4-Hydroxy-6-aza-spiro[2.5]oct-6-yl)-N,N-dimethyl-2-[7-oxo-4-(3-trifluoromethyl-phenyl)-[1,4]diazepan-1-yl]-butyramide]
17 | 60 | COC(=O)C(CCN1CCC2(CC2)[C@H](O)C1)N1CCN(c2cccc(C(F)(F)F)c2)CCC1=O (stereo partly drawn) [Example 15, (R,S)-4-((S)-4-Hydroxy-6-aza-spiro[2.5]oct-6-yl)-2-[7-oxo-4-(3-trifluoromethyl-phenyl)-[1,4]diazepan-1-yl]-butyric acid methyl ester]
18 | 52 | COC(=O)[C@H](CCN1CCC2(CC2)[C@H](O)C1)N1CC(C)N(c2ccc(Cl)c(Cl)c2)CCC1=O (mixture of isomers) [Example 67, (S)-2-[(R,S)-4-(3,4-dichloro-phenyl)-3-methyl-7-oxo-[1,4]diazepan-1-yl]-4-((S)-4-hydroxy-6-aza-spiro[2.5]oct-6-yl)-butyric acid methyl ester]
19 | 46 | CC1CN([C@@H](CO)CCN2CCC3(CC3)[C@H](O)C2)C(=O)CCN1c1ccc(Cl)c(Cl)c1 (mixture of isomers) [Example 68, (R,S)-1-(3,4-Dichloro-phenyl)-4-[(S)-3-((S)-4-hydroxy-6-aza-spiro[2.5]oct-6-yl)-1-hydroxymethyl-propyl]-2-methyl-[1,4]diazepan-5-one]
20 | 40 | COC(=O)[C@H](CCN1CCC2(CC2)[C@H](O)C1)N1CCN(c2ccc(Cl)c(Cl)c2)CCC1=O [Example 1, (S)-2-[4-(3,4-Dichloro-phenyl)-7-oxo-[1,4]diazepan-1-yl]-4-((S)-4-hydroxy-6-aza-spiro[2.5]oct-6-yl)-butyric acid methyl ester]
21 | 30 | COC(=O)[C@H](CCN1CCC2(CC2)[C@H](O)C1)N1CCN(c2cccc(OC(F)(F)F)c2)CCC1=O [Example 13, (S)-4-((S)-4-Hydroxy-6-aza-spiro[2.5]oct-6-yl)-2-[7-oxo-4-(3-trifluoromethoxy-phenyl)-[1,4]diazepan-1-yl]-butyric acid methyl ester]
22 | 11 | CC1CN(C(CO)CCN2CCC3(CC3)[C@H](O)C2)C(=O)CCN1c1ccc(Cl)c(Cl)c1 (stereo in doubt) [Example 69, (R)-1-(3,4-Dichloro-phenyl)-4-[(S)-3-((S)-4-hydroxy-6-aza-spiro[2.5]oct-6-yl)-1-hydroxymethyl-propyl]-2-methyl-[1,4]diazepan-5-one]
23 | 10 | O=C1CCN(c2ccc(Cl)c(Cl)c2)CCN1[C@H](CO)CCN1CCC2(CC2)[C@H](O)C1 [Example 2, 1-(3,4-Dichloro-phenyl)-4-[(S)-3-((S)-4-hydroxy-6-aza-spiro[2.5]oct-6-yl)-1-hydroxymethyl-propyl]-[1,4]diazepan-5-one]
24 | 10 | O=C1CCN(c2cccc(OC(F)(F)F)c2)CCN1[C@H](CO)CCN1CCC2(CC2)[C@H](O)C1 [Example 14, 4-[(S)-3-((S)-4-Hydroxy-6-aza-spiro[2.5]oct-6-yl)-1-hydroxymethyl-propyl]-1-(3-trifluoromethoxy-phenyl)-[1,4]diazepan-5-one]
25 | 10 | O=C1CCN(c2cccc(C(F)(F)F)c2)CCN1C(CO)CCN1CCC2(CC2)[C@H](O)C1 (stereo partly drawn) [Example 16, 4-[(R,S)-3-((S)-4-Hydroxy-6-aza-spiro[2.5]oct-6-yl)-1-hydroxymethyl-propyl]-1-(3-trifluoromethyl-phenyl)-[1,4]diazepan-5-one]
